According to ChEMBL document CHEMBL1909570, “Synthesis and antibacterial activity of N4-mono alkyl derivatives of novel glycopeptide LYV07ww01” (2011):
≈ marks a conversion by molar mass, not a printed value.

Experiments:
Format in all cases: functional
Staphylococcus = assay: Antibacterial activity against Staphylococcus albus 26101 by CLSI agar microdilution method
Streptococcus = assay: Antibacterial activity against Streptococcus gamma 32206 by CLSI agar microdilution method
[1] = system: Staphylococcus epidermidis; assay: Antibacterial activity against Staphylococcus epidermidis 26069 by CLSI agar microdilution method
Staphylococcus aureus = assay: Antibacterial activity against Staphylococcus aureus 26003 by CLSI agar microdilution method
Enterococcus faecium [2] = assay: Antibacterial activity against vancomycin-sensitive Enterococcus faecium ATCC 35667 by CLSI agar microdilution method
Streptococcus pneumoniae [3] = assay: Antibacterial activity against Streptococcus pneumoniae 31002 by CLSI agar microdilution method
Enterococcus faecium [4] = assay: Antibacterial activity against Enterococcus faecium 32220 by CLSI agar microdilution method
Enterococcus faecium [5] = assay: Antibacterial activity against vancomycin-resistant Enterococcus faecium MEFA 0039 by CLSI agar microdilution method
Streptococcus pneumoniae [6] = assay: Antibacterial activity against penicillin-intermediate Streptococcus pneumoniae ATCC 49619 by CLSI broth microdilution method
Enterococcus faecalis [7] = assay: microbe, parasite or virus in culture; conditions: ATCC 51299
Description: Antibacterial activity against vancomycin-resistant Enterococcus faecalis ATCC 51299 by CLSI agar microdilution method

Enterococcus faecalis [8] = assay: microbe, parasite or virus in culture; conditions: ATCC 29212
Description: Antibacterial activity against vancomycin-sensitive Enterococcus faecalis ATCC 29212 by CLSI agar microdilution method

Streptococcus pneumoniae [9] = assay: Antibacterial activity against penicillin-resistant Streptococcus pneumoniae MSPN 0003 by CLSI broth microdilution method

SMILES	MIC (Staphylococcus)	MIC (Streptococcus)	MIC [1]	MIC (Staphylococcus aureus)	MIC (Enterococcus faecium [2])	MIC (Streptococcus pneumoniae [3])	MIC (Enterococcus faecium [4])	MIC (Enterococcus faecium [5])	MIC (Streptococcus pneumoniae [6])	MIC (Enterococcus faecalis [7])	MIC (Enterococcus faecalis [8])	MIC (Streptococcus pneumoniae [9])
CN[C@H](CC(C)C)C(=O)N[C@H]1C(=O)N[C@@H](CC(N)=O)C(=O)N[C@H]2C(=O)N[C@H]3C(=O)N[C@H](C(=O)N[C@H](C(=O)O)c4cc(O)cc(O)c4-c4cc3ccc4O)[C@H](O)c3ccc(c(Cl)c3)Oc3cc2cc(c3O[C@@H]2O[C@H](CO)[C@@H](O)[C@H](O)[C@H]2O[C@H]2C[C@](C)(N)[C@H](O)[C@H](C)O2)Oc2ccc(cc2Cl)[C@H]1O.Cl [VANCOMYCIN HYDROCHLORIDE]	3.13 µg/mL	6.25 µg/mL	> 25 µg/mL	0.78 µg/mL	0.25 µg/mL	0.39 µg/mL	6.25 µg/mL	> 32 µg/mL	0.125 µg/mL	8 µg/mL	1 µg/mL	0.25 µg/mL
CN[C@H](CC(C)C)C(=O)N[C@H]1C(=O)N[C@@H](CC(N)=O)C(=O)N[C@H]2C(=O)N[C@H]3C(=O)N[C@H](C(=O)N[C@@H](C(=O)O)c4cc(O)cc(O)c4-c4cc3ccc4O)[C@H](O[C@H]3C[C@](C)(N)[C@H](O)[C@H](C)O3)c3ccc(c(Cl)c3)Oc3cc2cc(c3O[C@@H]2O[C@H](CO)[C@@H](O)[C@H](O)[C@H]2O[C@H]2C[C@](C)(NCc3ccc(-c4ccccc4)cc3)[C@H](O)[C@H](C)O2)Oc2ccc(cc2Cl)[C@H]1O	1.56 µg/mL (≈ 0.887 µM)	0.78 µg/mL (≈ 0.444 µM)	6.25 µg/mL (≈ 3.55 µM)	3.13 µg/mL (≈ 1.78 µM)	–	1.56 µg/mL (≈ 0.887 µM)	1.56 µg/mL (≈ 0.887 µM)	–	–	–	–	–
CN[C@H](CC(C)C)C(=O)N[C@H]1C(=O)N[C@@H](CC(N)=O)C(=O)N[C@H]2C(=O)N[C@H]3C(=O)N[C@H](C(=O)N[C@@H](C(=O)O)c4cc(O)cc(O)c4-c4cc3ccc4O)[C@H](O[C@H]3C[C@](C)(N)[C@H](O)[C@H](C)O3)c3ccc(c(Cl)c3)Oc3cc2cc(c3O[C@@H]2O[C@H](CO)[C@@H](O)[C@H](O)[C@H]2O[C@H]2C[C@](C)(NCc3cccs3)[C@H](O)[C@H](C)O2)Oc2ccc(cc2Cl)[C@H]1O	> 25 µg/mL	25 µg/mL (≈ 14.8 µM)	> 25 µg/mL	25 µg/mL (≈ 14.8 µM)	–	6.25 µg/mL (≈ 3.7 µM)	12.5 µg/mL (≈ 7.4 µM)	–	–	–	–	–
CN[C@H](CC(C)C)C(=O)N[C@H]1C(=O)N[C@@H](CC(N)=O)C(=O)N[C@H]2C(=O)N[C@H]3C(=O)N[C@H](C(=O)N[C@@H](C(=O)O)c4cc(O)cc(O)c4-c4cc3ccc4O)[C@H](O[C@H]3C[C@](C)(N)[C@H](O)[C@H](C)O3)c3ccc(c(Cl)c3)Oc3cc2cc(c3O[C@@H]2O[C@H](CO)[C@@H](O)[C@H](O)[C@H]2O[C@H]2C[C@](C)(NCc3cccc4ccccc34)[C@H](O)[C@H](C)O2)Oc2ccc(cc2Cl)[C@H]1O	1.56 µg/mL (≈ 0.9 µM)	6.25 µg/mL (≈ 3.61 µM)	> 25 µg/mL	1.56 µg/mL (≈ 0.9 µM)	–	0.78 µg/mL (≈ 0.45 µM)	1.56 µg/mL (≈ 0.9 µM)	–	–	–	–	–
CN[C@H](CC(C)C)C(=O)N[C@H]1C(=O)N[C@@H](CC(N)=O)C(=O)N[C@H]2C(=O)N[C@H]3C(=O)N[C@H](C(=O)N[C@@H](C(=O)O)c4cc(O)cc(O)c4-c4cc3ccc4O)[C@H](O[C@H]3C[C@](C)(N)[C@H](O)[C@H](C)O3)c3ccc(c(Cl)c3)Oc3cc2cc(c3O[C@@H]2O[C@H](CO)[C@@H](O)[C@H](O)[C@H]2O[C@H]2C[C@](C)(NC/C=C/c3ccccc3)[C@H](O)[C@H](C)O2)Oc2ccc(cc2Cl)[C@H]1O	3.13 µg/mL (≈ 1.83 µM)	1.56 µg/mL (≈ 0.913 µM)	> 25 µg/mL	3.13 µg/mL (≈ 1.83 µM)	–	1.56 µg/mL (≈ 0.913 µM)	3.13 µg/mL (≈ 1.83 µM)	–	–	–	–	–
CCCCCCCCCOc1ccc(CN[C@@]2(C)C[C@H](O[C@H]3[C@H](Oc4c5cc6cc4Oc4ccc(cc4Cl)[C@@H](O[C@H]4C[C@](C)(N)[C@H](O)[C@H](C)O4)[C@@H]4NC(=O)[C@H](NC(=O)[C@@H]6NC(=O)[C@H](CC(N)=O)NC(=O)[C@H](NC(=O)[C@@H](CC(C)C)NC)[C@H](O)c6ccc(c(Cl)c6)O5)c5ccc(O)c(c5)-c5c(O)cc(O)cc5[C@H](C(=O)O)NC4=O)O[C@H](CO)[C@@H](O)[C@@H]3O)O[C@@H](C)[C@H]2O)cc1	25 µg/mL (≈ 13.7 µM)	12.5 µg/mL (≈ 6.85 µM)	> 25 µg/mL	12.5 µg/mL (≈ 6.85 µM)	–	12.5 µg/mL (≈ 6.85 µM)	12.5 µg/mL (≈ 6.85 µM)	–	–	–	–	–
CN[C@H](CC(C)C)C(=O)N[C@H]1C(=O)N[C@@H](CC(N)=O)C(=O)N[C@H]2C(=O)N[C@H]3C(=O)N[C@H](C(=O)N[C@@H](C(=O)O)c4cc(O)cc(O)c4-c4cc3ccc4O)[C@H](O[C@H]3C[C@](C)(N)[C@H](O)[C@H](C)O3)c3ccc(c(Cl)c3)Oc3cc2cc(c3O[C@@H]2O[C@H](CO)[C@@H](O)[C@H](O)[C@H]2O[C@H]2C[C@](C)(NCc3cc(F)c(F)cc3F)[C@H](O)[C@H](C)O2)Oc2ccc(cc2Cl)[C@H]1O	3.13 µg/mL (≈ 1.8 µM)	12.5 µg/mL (≈ 7.2 µM)	12.5 µg/mL (≈ 7.2 µM)	1.56 µg/mL (≈ 0.898 µM)	–	1.56 µg/mL (≈ 0.898 µM)	1.56 µg/mL (≈ 0.898 µM)	–	–	–	–	–
CCCCCCCCCCNCCN[C@@]1(C)C[C@H](O[C@H]2[C@H](Oc3c4cc5cc3Oc3ccc(cc3Cl)[C@@H](O[C@H]3C[C@](C)(N)[C@H](O)[C@H](C)O3)[C@@H]3NC(=O)[C@H](NC(=O)[C@@H]5NC(=O)[C@H](CC(N)=O)NC(=O)[C@H](NC(=O)[C@@H](CC(C)C)NC)[C@H](O)c5ccc(c(Cl)c5)O4)c4ccc(O)c(c4)-c4c(O)cc(O)cc4[C@H](C(=O)O)NC3=O)O[C@H](CO)[C@@H](O)[C@@H]2O)O[C@@H](C)[C@H]1O	6.25 µg/mL (≈ 3.52 µM)	3.13 µg/mL (≈ 1.76 µM)	> 25 µg/mL	6.25 µg/mL (≈ 3.52 µM)	–	3.13 µg/mL (≈ 1.76 µM)	12.5 µg/mL (≈ 7.04 µM)	–	–	–	–	–
CN[C@H](CC(C)C)C(=O)N[C@H]1C(=O)N[C@@H](CC(N)=O)C(=O)N[C@H]2C(=O)N[C@H]3C(=O)N[C@H](C(=O)N[C@@H](C(=O)O)c4cc(O)cc(O)c4-c4cc3ccc4O)[C@H](O[C@H]3C[C@](C)(N)[C@H](O)[C@H](C)O3)c3ccc(c(Cl)c3)Oc3cc2cc(c3O[C@@H]2O[C@H](CO)[C@@H](O)[C@H](O)[C@H]2O[C@H]2C[C@](C)(NCc3ccc(Oc4ccc(OC)cc4)cc3)[C@H](O)[C@H](C)O2)Oc2ccc(cc2Cl)[C@H]1O	3.13 µg/mL (≈ 1.73 µM)	1.56 µg/mL (≈ 0.864 µM)	> 25 µg/mL	1.56 µg/mL (≈ 0.864 µM)	–	1.56 µg/mL (≈ 0.864 µM)	1.56 µg/mL (≈ 0.864 µM)	–	–	–	–	–
CN[C@H](CC(C)C)C(=O)N[C@H]1C(=O)N[C@@H](CC(N)=O)C(=O)N[C@H]2C(=O)N[C@H]3C(=O)N[C@H](C(=O)N[C@@H](C(=O)O)c4cc(O)cc(O)c4-c4cc3ccc4O)[C@H](O[C@H]3C[C@](C)(N)[C@H](O)[C@H](C)O3)c3ccc(c(Cl)c3)Oc3cc2cc(c3O[C@@H]2O[C@H](CO)[C@@H](O)[C@H](O)[C@H]2O[C@H]2C[C@](C)(NCc3ccc(Cl)cc3Cl)[C@H](O)[C@H](C)O2)Oc2ccc(cc2Cl)[C@H]1O	3.13 µg/mL (≈ 1.79 µM)	1.56 µg/mL (≈ 0.891 µM)	25 µg/mL (≈ 14.3 µM)	3.13 µg/mL (≈ 1.79 µM)	–	3.13 µg/mL (≈ 1.79 µM)	1.56 µg/mL (≈ 0.891 µM)	–	–	–	–	–
CCCCCN[C@@]1(C)C[C@H](O[C@H]2[C@H](Oc3c4cc5cc3Oc3ccc(cc3Cl)[C@@H](O[C@H]3C[C@](C)(N)[C@H](O)[C@H](C)O3)[C@@H]3NC(=O)[C@H](NC(=O)[C@@H]5NC(=O)[C@H](CC(N)=O)NC(=O)[C@H](NC(=O)[C@@H](CC(C)C)NC)[C@H](O)c5ccc(c(Cl)c5)O4)c4ccc(O)c(c4)-c4c(O)cc(O)cc4[C@H](C(=O)O)NC3=O)O[C@H](CO)[C@@H](O)[C@@H]2O)O[C@@H](C)[C@H]1O	3.13 µg/mL (≈ 1.88 µM)	0.78 µg/mL (≈ 0.469 µM)	> 25 µg/mL	1.56 µg/mL (≈ 0.938 µM)	–	0.39 µg/mL (≈ 0.235 µM)	> 25 µg/mL	–	–	–	–	–
CN[C@H](CC(C)C)C(=O)N[C@H]1C(=O)N[C@@H](CC(N)=O)C(=O)N[C@H]2C(=O)N[C@H]3C(=O)N[C@H](C(=O)N[C@@H](C(=O)O)c4cc(O)cc(O)c4-c4cc3ccc4O)[C@H](O[C@H]3C[C@](C)(N)[C@H](O)[C@H](C)O3)c3ccc(c(Cl)c3)Oc3cc2cc(c3O[C@@H]2O[C@H](CO)[C@@H](O)[C@H](O)[C@H]2O[C@H]2C[C@](C)(NCc3ccc(Sc4ccccc4)cc3)[C@H](O)[C@H](C)O2)Oc2ccc(cc2Cl)[C@H]1O	3.13 µg/mL (≈ 1.75 µM)	3.13 µg/mL (≈ 1.75 µM)	> 25 µg/mL	3.13 µg/mL (≈ 1.75 µM)	–	3.13 µg/mL (≈ 1.75 µM)	3.13 µg/mL (≈ 1.75 µM)	–	–	–	–	–
CN[C@H](CC(C)C)C(=O)N[C@H]1C(=O)N[C@@H](CC(N)=O)C(=O)N[C@H]2C(=O)N[C@H]3C(=O)N[C@H](C(=O)N[C@@H](C(=O)O)c4cc(O)cc(O)c4-c4cc3ccc4O)[C@H](O[C@H]3C[C@](C)(N)[C@H](O)[C@H](C)O3)c3ccc(c(Cl)c3)Oc3cc2cc(c3O[C@@H]2O[C@H](CO)[C@@H](O)[C@H](O)[C@H]2O[C@H]2C[C@](C)(NCc3ccc(Cl)cc3)[C@H](O)[C@H](C)O2)Oc2ccc(cc2Cl)[C@H]1O	3.13 µg/mL (≈ 1.82 µM)	1.56 µg/mL (≈ 0.909 µM)	12.5 µg/mL (≈ 7.28 µM)	3.13 µg/mL (≈ 1.82 µM)	–	1.56 µg/mL (≈ 0.909 µM)	3.13 µg/mL (≈ 1.82 µM)	–	–	–	–	–
CCCCCCCCCN[C@@]1(C)C[C@H](O[C@H]2[C@H](Oc3c4cc5cc3Oc3ccc(cc3Cl)[C@@H](O[C@H]3C[C@](C)(N)[C@H](O)[C@H](C)O3)[C@@H]3NC(=O)[C@H](NC(=O)[C@@H]5NC(=O)[C@H](CC(N)=O)NC(=O)[C@H](NC(=O)[C@@H](CC(C)C)NC)[C@H](O)c5ccc(c(Cl)c5)O4)c4ccc(O)c(c4)-c4c(O)cc(O)cc4[C@H](C(=O)O)NC3=O)O[C@H](CO)[C@@H](O)[C@@H]2O)O[C@@H](C)[C@H]1O	6.25 µg/mL (≈ 3.64 µM)	1.56 µg/mL (≈ 0.908 µM)	> 25 µg/mL	3.13 µg/mL (≈ 1.82 µM)	–	1.56 µg/mL (≈ 0.908 µM)	> 25 µg/mL	–	–	–	–	–
